Results on 20 compounds are retold here after patent US20250188069A1, “COMPOUNDS AND METHODS FOR DEGRADING CASEIN KINASE 1 ALPHA” (PIN THERAPEUTICS, INC., priority 2022, published 2025).

The subject of one experiment is MV-4-11 cells. Description: AML cell viability assay (RealTime-Glo). The format is cell-based. Conditions: Homo sapiens, MV4-11; IC50 class; MV-4-11 cells, RealTime-Glo after 44 hrs of treatment (TABLE 3); read-out: Cell viability classification.
A further experiment concerns the target CK1α (Homo sapiens, UniProt P48729+Q96SW2). Description: CK1α degradation, flow cytometry in MV4-11 cells. The note with it: % reduction of CK1α compared to DMSO, MV4-11 cells at 316 nM for 16 hours, read-out: CK1α degradation classification. Format: cell-based. Further details: CK1α levels were determined in MV-4-11 cells using Jess (Protein Simple); host or cells: MV-4-11. Here is the method: MV-4-11 cells were obtained from ATCC and grown in IMDM supplemented with 10% FBS. The cells were maintained at 37° C. under 5% CO2.
Compounds of the present disclosure were added to cells (final DMSO concentration of 0.5%) and incubated for 16 hours. CK1α level was determined in MV4-11 cells using flow cytometry (Luminex, Guava EasyCyte Plus). Briefly, cells were prepared with sequential 10% formalin and 70% methanol fixation. […] GuavaSoft Incyte software was used to analyse the flow cytometry data. Protein levels relative to DMSO are calculated for CK1α.
The efficacy of CK1α degradation of other part of compounds of the present disclosure was determined by treating MV4-11 cells at […] (Final DMSO concentration of 0.5%) for 16 hours. Protein levels relative to DMSO are calculated for CK1α.
Protein levels relative to DMSO are calculated for CK1α.
A general note: In flow cytometry, cells or beads pass a laser one at a time.

Where a name gives a salt, the structure may show the parent alone.

CK1α, sequence (P48729 whole entry): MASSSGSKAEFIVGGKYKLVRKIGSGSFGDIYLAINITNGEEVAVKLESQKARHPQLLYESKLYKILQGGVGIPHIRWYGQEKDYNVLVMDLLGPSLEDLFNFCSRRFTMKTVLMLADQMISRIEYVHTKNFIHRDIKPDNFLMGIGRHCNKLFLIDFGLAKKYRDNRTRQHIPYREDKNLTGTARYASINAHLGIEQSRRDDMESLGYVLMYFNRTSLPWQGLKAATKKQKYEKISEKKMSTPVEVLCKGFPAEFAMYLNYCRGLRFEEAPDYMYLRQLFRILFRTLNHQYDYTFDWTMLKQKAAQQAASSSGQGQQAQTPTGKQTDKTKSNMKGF
CK1α, sequence (Q96SW2 whole entry): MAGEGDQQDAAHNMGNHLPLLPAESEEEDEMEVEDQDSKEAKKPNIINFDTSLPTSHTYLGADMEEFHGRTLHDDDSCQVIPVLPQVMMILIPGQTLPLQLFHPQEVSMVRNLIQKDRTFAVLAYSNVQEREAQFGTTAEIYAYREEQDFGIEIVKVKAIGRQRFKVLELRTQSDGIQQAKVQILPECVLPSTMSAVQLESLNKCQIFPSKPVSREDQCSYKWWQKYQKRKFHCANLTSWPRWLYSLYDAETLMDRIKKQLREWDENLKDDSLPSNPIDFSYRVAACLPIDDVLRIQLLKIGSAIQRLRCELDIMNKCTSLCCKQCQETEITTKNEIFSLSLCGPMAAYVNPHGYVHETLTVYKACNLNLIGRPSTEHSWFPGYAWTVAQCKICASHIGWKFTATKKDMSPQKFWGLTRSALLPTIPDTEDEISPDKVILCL
CK1α, sequence (Q16531 whole entry partner): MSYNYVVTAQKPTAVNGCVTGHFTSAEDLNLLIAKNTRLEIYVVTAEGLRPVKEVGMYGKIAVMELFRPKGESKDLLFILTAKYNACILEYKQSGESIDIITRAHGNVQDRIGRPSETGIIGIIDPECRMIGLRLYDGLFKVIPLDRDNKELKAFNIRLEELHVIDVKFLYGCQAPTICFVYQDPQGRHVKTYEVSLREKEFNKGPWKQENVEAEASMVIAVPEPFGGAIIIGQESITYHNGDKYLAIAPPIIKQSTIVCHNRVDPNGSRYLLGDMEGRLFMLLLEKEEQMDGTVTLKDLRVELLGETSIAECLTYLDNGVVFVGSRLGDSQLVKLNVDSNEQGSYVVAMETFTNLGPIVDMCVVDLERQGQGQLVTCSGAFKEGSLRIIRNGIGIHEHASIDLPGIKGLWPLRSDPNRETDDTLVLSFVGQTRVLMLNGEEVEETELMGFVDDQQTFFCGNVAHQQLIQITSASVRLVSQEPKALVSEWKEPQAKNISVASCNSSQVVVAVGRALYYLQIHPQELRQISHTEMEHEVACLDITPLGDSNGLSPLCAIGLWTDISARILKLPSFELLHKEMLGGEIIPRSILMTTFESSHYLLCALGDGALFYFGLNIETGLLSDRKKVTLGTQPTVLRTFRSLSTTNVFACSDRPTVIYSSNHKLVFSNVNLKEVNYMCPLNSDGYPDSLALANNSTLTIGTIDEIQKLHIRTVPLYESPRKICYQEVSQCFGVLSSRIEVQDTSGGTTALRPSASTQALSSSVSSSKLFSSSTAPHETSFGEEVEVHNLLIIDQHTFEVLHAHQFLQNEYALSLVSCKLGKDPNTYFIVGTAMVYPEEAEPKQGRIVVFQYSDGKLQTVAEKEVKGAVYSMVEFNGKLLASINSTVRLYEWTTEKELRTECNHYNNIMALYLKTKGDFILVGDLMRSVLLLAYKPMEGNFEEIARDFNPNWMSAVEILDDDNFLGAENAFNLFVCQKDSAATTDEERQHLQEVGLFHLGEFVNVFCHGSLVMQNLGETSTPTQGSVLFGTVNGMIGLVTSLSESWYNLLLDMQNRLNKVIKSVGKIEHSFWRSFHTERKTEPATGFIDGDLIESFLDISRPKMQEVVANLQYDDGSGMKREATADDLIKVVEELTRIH

With `N[C@H]1CC[C@H](N(CCC2CCNCC2)c2cccc3c2CN(C2CCC(=O)NC2=O)C3=O)CC1` (stereo partly shown) [Compound 239, 3-(4-(((1r,4r)-4-aminocyclohexyl) (2-(piperidin-4-yl)ethyl)amino)-1-oxoisoindolin-2-yl) piperidine-2,6-dione, 2HCl], in the experiment on MV-4-11 cells, the IC50 is greater than 1000 nM. Also, on CK1α, the Dmax at 0.316 µM is less than 50%.

`N[C@H]1CC[C@H](N(CCC2CCOCC2)c2cccc3c2CN(C2CCC(=O)NC2=O)C3=O)CC1` (stereo partly shown) [Compound 240, 3-(4-(((1r,4r)-4-aminocyclohexyl)(2-(tetrahydro-2H-pyran-4-yl)ethyl)amino)-1-oxoisoindolin-2-yl)piperidine-2,6-dione hydrochloride]: the IC50 in the experiment with MV-4-11 cells was in the range of 100 to 1000 nM. For the same compound, on CK1α, the Dmax at 0.316 µM is less than 50%.

With `N[C@H]1CC[C@H](N(CCCC2CCNCC2)c2cccc3c2CN(C2CCC(=O)NC2=O)C3=O)CC1` (stereo partly shown) [Compound 241, 3-(4-(((1r,4r)-4-aminocyclohexyl)(3-(piperidin-4-yl)propyl)amino)-1-oxoisoindolin-2-yl)piperidine-2,6-dione, 2HCl], the IC50 with MV-4-11 cells was greater than 1000 nM. Also, the Dmax at 0.316 µM on CK1α is less than 50%.

Take `N[C@H]1CC[C@H](N(CCCC2CCOCC2)c2cccc3c2CN(C2CCC(=O)NC2=O)C3=O)CC1` (stereo partly shown) [Compound 242, 3-(4-(((1r,4r)-4-aminocyclohexyl)(3-(tetrahydro-2H-pyran-4-yl)propyl)amino)-1-oxoisoindolin-2-yl)piperidine-2,6-dione hydrochloride]: the IC50 with MV-4-11 cells is less than 100 nM. Moreover, the Dmax at 0.316 µM on CK1α is greater than 75%.

Consider `N[C@H]1CC[C@H](N(CCN2CCNCC2)c2cccc3c2CN(C2CCC(=O)NC2=O)C3=O)CC1` (stereo partly shown) [Compound 243, 3-(4-(((1r,4r)-4-aminocyclohexyl)(2-(piperazin-1-yl)ethyl)amino)-1-oxoisoindolin-2-yl)piperidine-2,6-dione, 3HCl], for which the IC50 with MV-4-11 cells was greater than 1000 nM. In addition, the Dmax at 0.316 µM on CK1α was less than 50%.

Take `N[C@H]1CC[C@H](N(CCN2CCOCC2)c2cccc3c2CN(C2CCC(=O)NC2=O)C3=O)CC1` (stereo partly shown) [Compound 244, 3-(4-(((1r,4r)-4-aminocyclohexyl)(2-morpholinoethyl)amino)-1-oxoisoindolin-2-yl)piperidine-2,6-dione, 2HCl]: in the experiment on MV-4-11 cells, the IC50 was greater than 1000 nM. Besides, the Dmax at 0.316 µM on CK1α is less than 50%.

Regarding `N[C@H]1CC[C@H](N(CCCN2CCNCC2)c2cccc3c2CN(C2CCC(=O)NC2=O)C3=O)CC1` (stereo partly shown) [Compound 245, 3-(4-(((1r,4r)-4-aminocyclohexyl)(3-(piperazin-1-yl)propyl)amino)-1-oxoisoindolin-2-yl)piperidine-2,6-dione, 3HCl], the IC50 with MV-4-11 cells was greater than 1000 nM. Moreover, the Dmax at 0.316 µM at CK1α is less than 50%.

Turning to `N[C@H]1CC[C@H](N(CCCN2CCOCC2)c2cccc3c2CN(C2CCC(=O)NC2=O)C3=O)CC1` (stereo partly shown) [Compound 246, 3-(4-(((1r,4r)-4-aminocyclohexyl)(3-morpholinopropyl)amino)-1-oxoisoindolin-2-yl)piperidine-2,6-dione dihydrochloride], the IC50 in the experiment with MV-4-11 cells is greater than 1000 nM. The Dmax at 0.316 µM at CK1α is less than 50%.

In the case of `CCCCCN(CCC1(CN)CCCCC1)c1cccc2c1CN(C1CCC(=O)NC1=O)C2=O` (stereo not shown) [Compound 255, 3-(4-((2-(1-(aminomethyl)cyclohexyl)ethyl) (pentyl)amino)-1-oxoisoindolin-2-yl) piperidine-2,6-dione, Formic Acid], in the experiment on MV-4-11 cells, the IC50 fell in the range of 100 to 1000 nM. Besides, the Dmax at 0.316 µM on CK1α was in the range of 50 to 75%.

Consider `CC(C)(C)CCN(c1cccc2c1CN(C1CCC(=O)NC1=O)C2=O)[C@H]1CC[C@H](N)CC1` (stereo partly drawn) [Compound 267, 3-(4-(((1R,4R)-4-aminocyclohexyl)(3,3-dimethylbutyl)amino)-1-oxoisoindolin-2-yl)piperidine-2,6-dione hydrochloride], for which the IC50 with MV-4-11 cells was less than 100 nM. For the same compound, the Dmax at 0.316 µM on CK1α is greater than 75%.

With `CC(C)(C)CCCN(c1cccc2c1CN(C1CCC(=O)NC1=O)C2=O)[C@H]1CC[C@H](N)CC1` (stereo partly shown) [Compound 268, 3-(4-(((1r,4r)-4-aminocyclohexyl)(4,4-dimethylpentyl)amino)-1-oxoisoindolin-2-yl)piperidine-2,6-dione, HCl], in the experiment on MV-4-11 cells, the IC50 is less than 100 nM. The Dmax at 0.316 µM on CK1α is greater than 75%.

Regarding `CC(=O)N[C@H]1CC[C@H](N(CCCCN)c2cccc3c2CN(C2CCC(=O)NC2=O)C3=O)CC1` (stereo partly shown) [Compound 273, N-((1r,4r)-4-((4-aminobutyl)(2-(2,6-dioxopiperidin-3-yl)-1-oxoisoindolin-4-yl)amino)cyclohexyl)acetamide, 2HCl], the IC50 in the experiment with MV-4-11 cells was greater than 1000 nM. Also, the Dmax at 0.316 µM at CK1α was 50 to 75%.

For the compound `CCCCCN(c1cccc2c1CN(C1CCC(=O)NC1=O)C2=O)[C@H]1CC[C@H](C(N)=O)CC1` (stereo partly drawn) [Compound 305, (1R,4R)-4-((2-(2,6-dioxopiperidin-3-yl)-1-oxoisoindolin-4-yl)(pentyl)amino)cyclohexane-1-carboxamide], the IC50 with MV-4-11 cells is less than 100 nM. Further, the Dmax at 0.316 µM at CK1α was greater than 75%.

Turning to `CCCCCN(c1cccc2c1CN(C1CCC(=O)NC1=O)C2=O)[C@H]1CC[C@H](C(=O)NC)CC1` (stereo partly drawn) [Compound 306, (1R,4R)-4-((2-(2,6-dioxopiperidin-3-yl)-1-oxoisoindolin-4-yl)(pentyl)amino)-N-methylcyclohexane-1-carboxamide], the IC50 in the experiment with MV-4-11 cells lay within 100 to 1000 nM. Moreover, the Dmax at 0.316 µM at CK1α is greater than 75%.

`CCCCCN(c1cccc2c1CN(C1CCC(=O)NC1=O)C2=O)[C@H]1CC[C@@H](C(N)=O)CC1` (stereo partly drawn) [Compound 307, (1S,4S)-4-((2-(2,6-dioxopiperidin-3-yl)-1-oxoisoindolin-4-yl)(pentyl)amino)cyclohexane-1-carboxamide]: the IC50 with MV-4-11 cells is less than 100 nM. In addition, the Dmax at 0.316 µM at CK1α is greater than 75%.

As for `CCCCCN(c1cccc2c1CN(C1CCC(=O)NC1=O)C2=O)[C@H]1CC[C@@H](C(=O)NC)CC1` (stereo partly drawn) [Compound 308, (1S,4S)-4-((2-(2,6-dioxopiperidin-3-yl)-1-oxoisoindolin-4-yl)(pentyl)amino)-N-methylcyclohexane-1-carboxamide], in the experiment with MV-4-11 cells, the IC50 was less than 100 nM. Besides, at CK1α, the Dmax at 0.316 µM is greater than 75%.

With `CCCCCN(c1cccc2c1CN(C1CCC(=O)NC1=O)C2=O)[C@H]1CC[C@H](NCC)CC1` (stereo partly shown) [Compound 309, 3-(4-(((1r,4r)-4-(ethylamino)cyclohexyl)(pentyl)amino)-1-oxoisoindolin-2-yl)piperidine-2,6-dione, HCl], the IC50 with MV-4-11 cells is less than 100 nM. At CK1α, the Dmax at 0.316 µM is greater than 75%.

As for `CCCCCN(c1cccc2c1CN(C1CCC(=O)NC1=O)C2=O)[C@H]1CC[C@H](NC(C)C)CC1` (stereo partly shown) [Compound 310, 3-(4-(((1r,4r)-4-(isopropylamino)cyclohexyl)(pentyl)amino)-1-oxoisoindolin-2-yl)piperidine-2,6-dione, HCl], the IC50 in the experiment on MV-4-11 cells is less than 100 nM. Besides, on CK1α, the Dmax at 0.316 µM was in the range of 50 to 75%.

For the compound `CCCCCN(c1cccc2c1CN(C1CCC(=O)NC1=O)C2=O)[C@H]1CC[C@H](NCC(C)C)CC1` (stereo partly shown) [Compound 311, 3-(4-(((1r,4r)-4-(isobutylamino)cyclohexyl)(pentyl)amino)-1-oxoisoindolin-2-yl)piperidine-2,6-dione, HCl], in the experiment with MV-4-11 cells, the IC50 is less than 100 nM. In addition, the Dmax at 0.316 µM on CK1α was greater than 75%.

Regarding `CCCCCN(c1cccc2c1CN(C1CCC(=O)NC1=O)C2=O)[C@H]1CC[C@H](NCCC)CC1` (stereo partly shown) [Compound 312, 3-(1-oxo-4-(pentyl((1r,4r)-4-(propylamino)cyclohexyl)amino)isoindolin-2-yl)piperidine-2,6-dione, HCl], the IC50 in the experiment with MV-4-11 cells was less than 100 nM. In addition, the Dmax at 0.316 µM at CK1α was greater than 75%.
